Laboratory results: US8486927B2 (Thar Pharmaceuticals, priority 2007, dated 2013)

Assays:
[1] = In-vivo absorption test in rats, oral gavage, lamotrigine in blood serum by HPLC-UV; design: species or system Rats Sprague-Dawley; conditions: for Plasma concentration of lamotrigine in rats: rats (N = 5), oral gavage, 10 mg/kg as lamotrigine
Protocol: Rats historically have been used in safety evaluation and PK screening studies and are recommended by appropriate regulatory agencies.
Dose preparation; dose is prepared and suspended in 1 ml of 5% PEG 400 with 95% methylcellulose solution (weight percentage); methylcellulose solution is prepared by dissolving 0.5% methylcellulose in water (weight percentage).
The machine was operated by Total Chrome Workstation (Perkin Elmer Instruments LLC).

[2] = cited from earlier work
[3] = Sprague-Dawley, rat, plasma, po, 10 mg/kg

Row | SMILES | Plasma concentration of lamotrigine in rats ([1]; time 0 hrs) [µg/mL] | Plasma concentration of lamotrigine in rats ([1]; time 0.5 hrs) [µg/mL] | Plasma concentration of lamotrigine in rats ([1]; time 1 hrs) [µg/mL] | Plasma concentration of lamotrigine in rats ([1]; time 2 hrs) [µg/mL] | Plasma concentration of lamotrigine in rats ([1]; time 3 hrs) [µg/mL] | Plasma concentration of lamotrigine in rats ([1]; time 4 hrs) [µg/mL] | Plasma concentration of lamotrigine in rats ([1]; time 8 hrs) [µg/mL] | Plasma concentration of lamotrigine in rats ([1]; time 12 hrs) [µg/mL] | Plasma concentration of lamotrigine in rats ([1]; time 24 hrs) [µg/mL] | concentration at 0 h [1, 3] [ng/mL] | concentration at 0.5 h [1, 3] [ng/mL] | concentration at 1 h [1, 3] [ng/mL] | concentration at 2 h [1, 3] [ng/mL] | concentration at 3 h [1, 3] [ng/mL] | concentration at 4 h [1, 3] [ng/mL] | concentration at 8 h [1, 3] [ng/mL] | concentration at 12 h [1, 3] [ng/mL] | concentration at 24 h [1, 3] [ng/mL] | extent of absorption, solid versus solution ([2]; drug delivered as a solid or as a solution) | extent of absorption by site of delivery ([2]; drug delivered to any point in the gastrointestinal tract between the stomach and the ascending colon)
1 | NC(=O)c1cccnc1.Nc1nnc(-c2cccc(Cl)c2Cl)c(N)n1 [Cocrystal 2] | 0 | 1.184 | 1.561 | 1.605 | 1.757 | 1.609 | 1.823 | 1.84 | 0.9718 | – | – | – | – | – | – | – | – | – | – | –
2 | Nc1nnc(-c2cccc(Cl)c2Cl)c(N)n1 [Lamotrigine, 6-(2,3-dichlorophenyl)-1,2,4-triazine-3,5-diamine] | – | – | – | – | – | – | – | – | – | 0 | 1590 | 2240 | 2370 | 2420 | 2480 | 2680 | 2860 | 2130 | similar | consistent
